Data on 5 compounds can be found in US7524975B2, “Peroxisome proliferator activated receptor ligand and process for producing the same” (Kaneka Corporation, priority 2001, dated 2009).

Experiment [1] deals with T1, mouse PPARγ ligand-binding site (Mus musculus, UniProt P37238).
T1 construct: expressed in transfected cells; host or cells: CV-1 cells (African green monkey kidney)
T1 sequence (P37238 174-475 isoform P37238-2): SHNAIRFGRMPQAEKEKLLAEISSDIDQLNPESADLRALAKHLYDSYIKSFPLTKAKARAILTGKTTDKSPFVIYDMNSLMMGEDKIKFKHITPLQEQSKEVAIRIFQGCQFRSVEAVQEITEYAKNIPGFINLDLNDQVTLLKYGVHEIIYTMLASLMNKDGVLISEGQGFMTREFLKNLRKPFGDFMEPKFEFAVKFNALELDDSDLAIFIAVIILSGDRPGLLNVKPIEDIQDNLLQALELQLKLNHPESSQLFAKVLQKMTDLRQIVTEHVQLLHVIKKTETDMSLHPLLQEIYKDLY
As to the kind of experiment: Measurement of PPARγ ligand activity (GAL4 chimera luciferase reporter in CV-1 cells). As to conditions: for PPARγ ligand activity: CV-1 cells, 24 hours, specific activity relative to untreated control (DMSO) = 1.00; for PPARγ ligand activity compared with positive control troglitazone (in words): compared with 0.5 μM troglitazone. The class given is cell-based. As to the method:
CV-1 cells (cultured cells derived from the kidney of a male African green monkey) were inoculated on a 96-well culture plate in a concentration of 6×10^3 cells/well and incubated at 37° C. in 5% CO2 for 24 hours. The medium used was DMEM (Dulbecco's Modified Eagle Medium: GIBCO) containing 10% FBS (fetal bovine serum), 10 ml/L penicillin and streptomycin solution (containing 5000 IU/ml and 5,000 μg/ml, respectively: GIBCO) and 37 mg/L ascorbic acid (Wako Pure Chemical Industries, Ltd.). […] 4xUASg-luc is a reporter plasmid comprising four GAL4 response sequences (UASg) integrated into a region upstream of a luciferase gene. At about 24 hours after transfection, the medium was exchanged with a sample-containing medium, and the cells were cultured for 24 hours (n=4). The sample-containing medium was prepared by dissolving a sample in dimethyl sulfoxide (DMSO) in an amount of 1/1000 based on the medium, while for the untreated control, DMSO in an amount of 1/1000 based on the medium was used in place of the sample. After the cells were washed with a Ca- and Mg-containing phosphate buffered physiological saline (PBS+), LucLite (Packard) was added thereto, and the intensity of luciferase luminescence was measured with a TopCount microplate scintillation/luminescence counter (Packard).
As the control group, pM (plasmid from which the PPARγ ligand-binding site gene was removed) was measured in place of pM-mPPARγ in the same manner as for the measurement group. For each sample, the ratio (measurement group/control group) of the average luminescence intensity of the measurement group (n=4) to that of the control group was calculated, and the specific activity relative to the activity of the untreated control was regarded as the PPARγ ligand activity of the sample.

The subject of experiment [2] is KK-Ay mouse. As to the kind of experiment: Effect on type 2 diabetes mellitus model mouse: blood glucose level during mixed-feed administration. The format is in vivo. As to conditions: KK-Ay mice; for Blood glucose level: means±SE, n=5. As for the experimental part:
Using a KK-Ay mouse which is genetically obese and type 2 diabetic animal, the effect of Compound 2 on diabetes mellitus was evaluated.
Compound 2 was prepared in the same procedure as in Example 1 and added to the basal diet such that the content of Compound 2 in a final feed was 0.1%. On the day before administration and 4 days after administration, a small amount of blood was collected from a mouse tail vein, and measured for its blood glucose level by a simple blood glucose measuring instrument Glutest Ace (Sanwa Kagaku Kenkyusho Co., Ltd.).

The test system of experiment [3] is KK-Ay mouse. The experiment is described as follows: Glucose tolerance test (sucrose loading) in KK-Ay mice. The class given is in vivo. Conditions: for Blood glucose level: oral pioglitazone 20 mg/kg or Compound 2 100 mg/kg. As to the method:
After the mixed feed was given for 1 week, the mice were fasted overnight and then subjected to a glucose tolerance test. […] To the non-additive group (control group), 0.5% CMC-Na solution was administered in an amount of 5 ml/kg. At a time of 30 minutes after administration, the mice were loaded with 2 g/kg of 40% sucrose solution. Before the sugar loading and at a time of 30 minutes, 1 hour and 2 hours after the sugar loading, a small amount of blood was collected from a mouse tail vein, and measured for its blood glucose level by a simple blood glucose measuring instrument Glutest Ace (Sanwa Kagaku Kenkyusho Co., Ltd.).

[4] abbreviates: 4 days after administration, in feed: pioglitazone 0.02%, Compound 2 0.1%.
[5] abbreviates: 30 minutes after sugar loading (2 g/kg sucrose).
Where [6] appears, read: 1 hour after sugar loading (2 g/kg sucrose).
Setting [7] is: before sugar loading, fasted KK-Ay mice after 1 week mixed feed.

For the compound `COc1cc2oc(=O)c(-c3ccc(O)cc3O)cc2c(OC)c1CC=C(C)C` [Compound 2, Glycyrin], the PPARγ ligand activity in experiment [1] (added concentration 2 μg/ml) is on record as 2.81; in experiment [1] (added concentration 5 μg/ml), 3.34; in experiment [1] (added concentration 10 μg/ml), 3.67. The Blood glucose level with KK-Ay mouse [2] (setting [4]) was 278 ± 14 mg/dL; in the experiment with KK-Ay mouse [2] (before administration), 474 ± 27 mg/dL; in the experiment on KK-Ay mouse [3] (setting [5]) it was 225 ± 27 mg/dL; with KK-Ay mouse [3] (setting [6]) it was 129 ± 8 mg/dL; in the experiment with KK-Ay mouse [3] (2 hour after sugar loading (2 g/kg sucrose)), 100 ± 3 mg/dL; with KK-Ay mouse [3] (setting [7]) it was 78 ± 4 mg/dL. In addition, the “Blood glucose levels on the fourth day after the administration (in words)” value with KK-Ay mouse [2] (0.1% in feed) is recorded as “statistically significantly reduced”. In the experiment on KK-Ay mouse [3] (KK-Ay mice, 100 mg/kg oral), the “Increase in blood glucose levels after the sugar loading (in words)” value was “statistically significantly inhibited a rapid increase in blood glucose levels after the sugar loading”.

For `CC(C)=CCc1cc(C(=O)CC(=O)c2cc3c(cc2O)OC(C)(C)C=C3)ccc1O` [Compound 28, Glycyrdione C], the PPARγ ligand activity is reported as 0.96 in experiment [1] (added concentration 2 μg/ml), 1.48 in experiment [1] (added concentration 5 μg/ml) and 2.04 in experiment [1] (added concentration 10 μg/ml). Further, the “PPARγ ligand activity compared with positive control troglitazone (in words)” value in experiment [1] is reported as “slightly weaker than that of a positive control containing 0.5 μM troglitazone”.

For `CC1(C)[C@@H](O)CC[C@]2(C)[C@H]3C(=O)C=C4[C@@H]5C[C@@](C)(C(=O)O)CC[C@]5(C)CC[C@@]4(C)[C@]3(C)CC[C@@H]12` [Glycyrrhetinic acid, glycyrrhetinic acid, reference compound], the PPARγ ligand activity was 0.97 in experiment [1] (added concentration 2 μg/ml), 0.95 in experiment [1] (added concentration 5 μg/ml) and 0.97 in experiment [1] (added concentration 10 μg/ml). The “PPARγ ligand activity compared with positive control troglitazone (in words)” value in experiment [1] is recorded as “not recognized to have a PPARγ ligand activity”.

On to `CCc1ccc(CCOc2ccc(CC3SC(=O)NC3=O)cc2)nc1` (stereo not shown) [Pioglitazone, pioglitazone, reference compound], for which the Blood glucose level was 191 ± 6 mg/dL in the experiment on KK-Ay mouse [2] (setting [4]); 486 ± 26 mg/dL in the experiment on KK-Ay mouse [2] (before administration); 158 ± 11 mg/dL with KK-Ay mouse [3] (setting [5]); 136 ± 5 mg/dL in the experiment on KK-Ay mouse [3] (setting [6]); 89 ± 3 mg/dL in the experiment with KK-Ay mouse [3] (setting [7]).

Turning to `O=c1c(O)c(-c2ccc(O)c(O)c2)oc2cc(O)cc(O)c12` [Quercetin, quercetin, reference compound], the results for the PPARγ ligand activity in experiment [1] (added concentration 2 μg/ml), in experiment [1] (added concentration 5 μg/ml) and in experiment [1] (added concentration 10 μg/ml) were 1.15, 1.72 and 1.70, respectively. Moreover, in experiment [1], the “PPARγ ligand activity compared with positive control troglitazone (in words)” value was “not recognized to have a PPARγ ligand activity”.
